According to patent publication US9884849B2, “Fluorinated benzofuranyl-pyrimidine derivatives containing a sulfoximine group” (Bayer Pharma Aktiengesellschaft, priority 2014, dated 2018):
Where two headings read alike, the source gives them in different places.

Columns and labels:
[1] = system: MOLM-13 cells; assay: Proliferation assay MOLM-13 (Method 3); assay type: cell-based, human; settings: MOLM-13, 72-hour exposure, Cell Titre-Glo, read-out: Inhibition of MOLM-13 cell proliferation IC50
Description: Non-adherent MOLM-13 human acute myeloid leukemia cells (DSMZ ACC 554) were seeded at a density of 5,000 cells/well in a 96-well multititer plate in 100 μL of growth medium supplemented 10% fetal calf serum. After 24 hours, cell viability of one plate (zero-point plate) was determined with the Cell Titre-Glo Luminescent Cell Viability Assay (Promega), while 50 μL of test compound containing medium was added to the wells of the other plates (final concentrations in the range of 0.001-10 μM and DMSO controls; the final concentration of the solvent dimethyl sulfoxide was 0.5%). Cell viability was assessed after 72-hour exposure with the Cell Titre-Glo Luminescent Cell Viability Assay (Promega). IC50 values (inhibitory concentration at 50% of maximal effect) were determined by means of a 4 parameter fit on measurement data which were normalized to vehicle (DMSO) treated cells (=100%) and measurement readings taken immediately before compound exposure (=0%).

[2] = system: NCI-H460 cells; assay: Proliferation assay NCI-H460 (Method 3); assay type: cell-based, human; settings: NCI-H460, 4 days, crystal violet, read-out: Inhibition of NCI-H460 cell proliferation IC50
Description: (§1) Cultivated tumour cells (HeLa, human cervical tumour cells, ATCC CCL-2; NCI-H460, human non-small cell lung carcinoma cells, ATCC HTB-177; A2780, human ovarian carcinoma cells, ECACC #93112519; DU 145, hormone-independent human prostate carcinoma cells, ATCC HTB-81; HeLa-MaTu-ADR, multidrug-resistant human cervical carcinoma cells, EPO-GmbH Berlin; Caco-2, human colorectal carcinoma cells, ATCC HTB-37; B16F10, mouse melanoma cells, ATCC CRL-6475) were plated at a density of 5,000 cells/well (DU145, HeLa-MaTu-ADR), 3,000 cells/well (NCI-H460, HeLa), 2,500 cells/well (A2780), 1,500 cells/well (Caco-2), or 1,000 cells/well (B16F10) in a 96-well multititer plate in 200 μL of their respective growth medium supplemented 10% fetal calf serum. After 24 hours, the cells of one plate (zero-point plate) were stained with crystal violet (see below), while the medium of the other plates was replaced by fresh culture medium (200 μl), to which the test substances were added in various concentrations (0 μM, as well as in the range of 0.001-10 μM; the final concentration of the solvent dimethyl sulfoxide was 0.5%). The cells were incubated for 4 days in the presence of test substances. Cell proliferation was determined by staining the cells with crystal violet: the cells were fixed by adding 20 μl/measuring point of an 11% glutaric aldehyde solution for 15 minutes at room temperature. After three washing cycles of the fixed cells with water, the plates were dried at room temperature. The cells were stained by adding 100 μl/measuring point of a 0.1% crystal violet solution (pH 3.0). After three washing cycles of the stained cells with water, the plates were dried at room temperature. The dye was dissolved by adding 100 μl/measuring point of a 10% acetic acid solution. The extinction was determined by photometry at a wavelength of 595 nm. The change of cell number, in percent, was calculated by normalization of the measured values to the extinction values of the zero-point plate (=0%) and the extinction of the untreated (0 μm) cells (=100%). The IC50 values (inhibitory concentration at 50% of maximal effect) were determined by means of a 4 parameter fit.

[3] = system: HeLa-MaTu-ADR cells; assay: Proliferation assay HeLa-MaTu-ADR (Method 3); assay type: cell-based, human; settings: 4 days, crystal violet, read-out: Inhibition of HeLa-MaTu-ADR cell proliferation IC50
Description: as §1

[4] = target: T1, CDK2/CycE (Homo sapiens, UniProt P24941); assay: CDK2/CycE kinase assay (Method 2a, TR-FRET); assay type: biochemical; settings: 10 μM ATP
T1 construct: GST; purchased ProQinase GmbH (Freiburg, Germany); host or cells: insect cells (Sf9)
Source text: 2a. CDK2/CycE kinase assay:
CDK2/CycE-Inhibitory Activity of Compounds of the Present Invention was Quantified Employing the CDK2/CycE TR-FRET Assay as Described in the Following Paragraphs:
Recombinant fusion proteins of GST and human CDK2 and of GST and human CycE, expressed in insect cells (Sf9) and purified by Glutathion-Sepharose affinity chromatography, were purchased from ProQinase GmbH (Freiburg, Germany). As substrate for the kinase reaction biotinylated peptide biotin-Ttds-YISPLKSPYKISEG (C-terminus in amid form) was used which can be purchased e.g. form the company JERINI Peptide Technologies (Berlin, Germany).
For the assay 50 nl of a 100 fold concentrated solution of the test compound in DMSO was pipetted into a black low volume 384 well microtiter plate (Greiner Bio-One, Frickenhausen, Germany), 2 yl of a solution of CDK2/CycE in aqueous assay buffer [50 mM Tris/HCl pH 8.0, 10 mM MgCl2, 1.0 mM dithiothreitol, 0.1 mM sodium ortho-vanadate, 0.01% (v/v) Nonidet-P40 (Sigma)] were added and the mixture was incubated for 15 min at 22° C. to allow pre-binding of the test compounds to the enzyme before the start of the kinase reaction. […] The concentration of CDK2/CycE was adjusted depending of the activity of the enzyme lot and was chosen appropriate to have the assay in the linear range, typical concentrations were in the range of 130 ng/mL. The reaction was stopped by the addition of 5 yl of a solution of TR-FRET detection reagents (0.2 μM streptavidine-XL665 [Cisbio Bioassays, Codolet, France] and 1 nM anti-RB(pSer807/pSer811)-antibody from BD Pharmingen [#558389] and 1.2 nM LANCE EU-W1024 labeled anti-mouse IgG antibody [Perkin-Elmer, product no. AD0077]) in an aqueous EDTA-solution (100 mM EDTA, 0.2% (w/v) bovine serum albumin in 100 mM HEPES/NaOH pH 7.0).
The resulting mixture was incubated 1 h at 22° C. to allow the formation of complex between the phosphorylated biotinylated peptide and the detection reagents. Subsequently the amount of phosphorylated substrate was evaluated by measurement of the resonance energy transfer from the Eu-chelate to the streptavidine-XL. Therefore, the fluorescence emissions at 620 nm and 665 nm after excitation at 350 nm was measured in a TR-FRET reader, e.g. a Rubystar (BMG Labtechnologies, Offenburg, Germany) or a Viewlux (Perkin-Elmer). The ratio of the emissions at 665 nm and at […] was taken as the measure for the amount of phosphorylated substrate. The data were normalised (enzyme reaction without inhibitor=0% inhibition, all other assay components but no enzyme=100% inhibition).

[5] = system: A2780 cells; assay: Proliferation assay A2780 (Method 3); assay type: cell-based, human; settings: A2780, 4 days, crystal violet, read-out: Inhibition of A2780 cell proliferation IC50
Description: as §1

IC50 ([1]; Homo sapiens, MOLM-13, 72 h) | IC50 ([2]; Homo sapiens, NCI-H460, 96 h) | IC50 ([3]; Homo sapiens, 96 h) | IC50 [4] | IC50 [5] | IC50 [1] | IC50 [2] | IC50 [3] | IC50 ([5]; Homo sapiens, A2780, 96 h) | SMILES
115 nM | 343 nM | 190 nM | 89 nM | 93 nM | – | – | – | – | CS(=N)(=O)Cc1cccc(Nc2ncc(F)c(-c3ccc(F)c4ccoc34)n2)c1 (single isomer, unassigned) [Example 5, 5-Fluoro-4-(4-fluoro-1-benzofuran-7-yl)-N-{3-[(S-methylsulfonimidoyl)-methyl]-phenyl}-pyrimidin-2-amine]
– | – | – | 57 nM | 38 nM | 117 nM | 314 nM | 96 nM | – | CS(=N)(=O)Cc1cccc(Nc2ncc(F)c(-c3ccc(F)c4ccoc34)n2)c1 (single isomer, unassigned) [Example 6, 5-Fluoro-4-(4-fluoro-1-benzofuran-7-yl)-N-{3-[(S-methylsulfonimidoyl)-methyl]-phenyl}-pyrimidin-2-amine]
34 nM | 119 nM | 35 nM | 62 nM | – | – | – | – | 37 nM | CS(=O)(Cc1cc(F)cc(Nc2ncc(F)c(-c3ccc(F)c4ccoc34)n2)c1)=NC#N (single isomer, unassigned) [Example 8, [(3-Fluoro-5-{[5-fluoro-4-(4-fluoro-1-benzofuran-7-yl)pyrimidin-2-yl]amino}benzyl)(methyl)-oxido-λ^6-sulfanylidene]cyanamide]
– | – | – | 88 nM | 19 nM | 24 nM | 106 nM | 42 nM | – | CS(=O)(Cc1cc(F)cc(Nc2ncc(F)c(-c3ccc(F)c4ccoc34)n2)c1)=NC#N (single isomer, unassigned) [Example 9, [(3-Fluoro-5-{[5-fluoro-4-(4-fluoro-1-benzofuran-7-yl)pyrimidin-2-yl]amino}benzyl)(methyl)-oxido-λ^6-sulfanylidene]cyanamide]
75 nM | 112 nM | 57 nM | 65 nM | – | – | – | – | 45 nM | Cc1cc(CS(C)(=O)=NC#N)cc(Nc2ncc(F)c(-c3ccc(F)c4ccoc34)n2)c1 (single isomer, unassigned) [Example 14, [(3-{[5-Fluoro-4-(4-fluoro-1-benzofuran-7-yl)pyrimidin-2-yl]amino}-5-methylbenzyl)-(methyl)oxido-λ^6-sulfanylidene]cyanamide]
– | – | – | 95 nM | 63 nM | 74 nM | 121 nM | 110 nM | – | Cc1cc(CS(C)(=O)=NC#N)cc(Nc2ncc(F)c(-c3ccc(F)c4ccoc34)n2)c1 (single isomer, unassigned) [Example 15, [(3-{[5-Fluoro-4-(4-fluoro-1-benzofuran-7-yl)pyrimidin-2-yl]amino}-5-methylbenzyl)-(methyl)oxido-λ^6-sulfanylidene]cyanamide]
